Experimental data from ChEMBL document CHEMBL1142218, “Synthesis, anti-HIV activity, and resistance profiles of ribose modified nucleoside phosphonates” (Bioorg Med Chem Lett, 2007).

Columns and labels:
[1] = Inhibition of wild type HIV reverse transcriptase; parameters: species or system Human immunodeficiency virus
[2] = tested on: Human immunodeficiency virus; test: Antiviral activity against wild type HIV; assay type: functional, organism-based; conditions: Human immunodeficiency virus 1
[3] = Cytotoxicity against human MT2 cells; assay type: cell-based
[4] = tested on: Human immunodeficiency virus; test: Antiviral activity against HIV with reverse transcriptase K65R mutation in MT-2 cells assessed as fold resistance relative to wild type
[5] = tested on: Human immunodeficiency virus; test: Antiviral activity against HIV with reverse transcriptase M184V mutation in MT-2 cells assessed as fold resistance relative to wild type
[6] = tested on: Human immunodeficiency virus; test: Antiviral activity against HIV with reverse transcriptase 6TAMs mutation in MT-2 cells assessed as fold resistance relative to wild type

| Structure (SMILES) | IC50 [1] | EC50 [2] | CC50 [3] | Activity [4] | Activity [5] | Activity [6] |
| --- | --- | --- | --- | --- | --- | --- |
| O=c1ccn([C@H]2C=C[C@@H](OCP(=O)(O)OP(=O)(O)OP(=O)(O)O)O2)c(=O)[nH]1 | 0.55 µM |  |  |  |  |  |
| Nc1ncnc2c1ncn2[C@H]1C=C[C@@H](OCP(=O)(O)O)O1 | 0.6 µM | 2.1 µM | > 1000 µM | 2.9 | 0.9 | 2.9 |
| O=c1ccn([C@H]2C=C[C@@H](OCP(=O)(O)O)O2)c(=O)[nH]1 | 5.7 µM | > 200 µM | > 1000 µM |  |  |  |
| O=c1ccn([C@H]2CC[C@@H](OCP(=O)(O)O)O2)c(=O)[nH]1 |  | > 200 µM |  |  |  |  |
| Nc1ncnc2c1ncn2[C@H]1CC[C@@H](OCP(=O)(O)OP(=O)(O)OP(=O)(O)O)O1 | 0.26 µM |  |  |  |  |  |
| O=c1[nH]c(=O)n([C@H]2C=C[C@@H](OCP(=O)(O)O)O2)cc1Br |  | 15 µM | 935 µM | 7.5 | 1.3 | >10 |
| Nc1ncnc2c1ncn2[C@H]1C=C[C@@H](OCP(=O)(O)O)C1 |  | 51.7 µM |  |  |  |  |
| Cc1cn([C@H]2CC[C@@H](OCP(=O)(O)O)O2)c(=O)[nH]c1=O | 5.4 µM | > 200 µM |  |  |  |  |
| Nc1ccn([C@H]2C=C[C@@H](OCP(=O)(O)O)O2)c(=O)n1 |  | > 200 µM |  |  |  |  |
| Cc1cn([C@H]2C=C[C@@H](OCP(=O)(O)OP(=O)(O)OP(=O)(O)O)O2)c(=O)[nH]c1=O | 0.06 µM |  |  |  |  |  |
| C[C@H](Cn1cnc2c(N)ncnc21)OCP(=O)(O)O [TENOFOVIR ANHYDROUS] | 0.38 µM | 3.6 µM | > 1000 µM | 4.3 | 0.7 | 8.8 |
| Nc1ncnc2c1ncn2[C@H]1CC[C@@H](OCP(=O)(O)O)O1 | 4.1 µM | 12 µM | > 1000 µM | 4.9 | 1.1 | 3.4 |
| Cc1cn([C@H]2C=C[C@@H](OCP(=O)(O)O)O2)c(=O)[nH]c1=O | 0.39 µM | 26 µM | > 1000 µM | 5.2 | 1.1 | 12.7 |
| Nc1ncnc2c1ncn2[C@H]1CO[C@@H](OCP(=O)(O)O)C1 | 0.32 µM | 9.5 µM | 863 µM | 2.2 | 11 | 3.2 |
| Nc1ncnc2c1ncn2[C@H]1C=C[C@@H](OCP(=O)(O)OP(=O)(O)OP(=O)(O)O)O1 | 0.14 µM |  |  |  |  |  |
| O=c1[nH]c(=O)n([C@H]2C=C[C@@H](OCP(=O)(O)O)O2)cc1F |  | > 200 µM |  |  |  |  |
| O=c1[nH]c(=O)n([C@H]2C=C[C@@H](OCP(=O)(O)O)O2)cc1Cl |  | 28.5 µM | 413 µM | 6.7 | 0.8 | >10 |
| Nc1nc(NC2CC2)c2ncn([C@H]3C=C[C@@H](CO)C3)c2n1 (single isomer, unassigned) [ABACAVIR] | 0.13 µM | 0.32 µM | 190 µM | 3.8 | 7.1 | 5.7 |
